Columns and labels:
human DGKα = human DGKα (Homo sapiens, UniProt P23743); experiment: DGKα Biochemical Activity Assay (ADP-Glo); conditions: recombinant DGKα 1 nM, 100 μM ATP, 18:1 DAG/POPS/octylglucoside micelles, 1 hour at 25° C.; geometric mean; read-out: HTBS DGKa 1X ATP KM IC50;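 further: luminescent detection of ADP produced as DGKα phosphorylates DAG to phosphatidic acid, IC50 from four-parameter nonlinear curve fit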
[1] = system: Jurkat NFκB-luciferase cells; experiment: Jurkat NFκB-Luciferase Assay; assay type: cell-based; conditions: Homo sapiens; Jurkat NFκB-luciferase cells activated with anti-CD3 antibody (OKT3), 2.5 hrs at 37° C.; geometric mean; read-out: DGK NFKb Luciferase EC50
In short: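 Jurkat NFκB-luciferase reporter cells at 1 million cells/ml in RPMI with 10% FBS were added to antibody-coated, compound-containing wells. Luciferase activity read by One-Glo Ex luminescence 7 minutes after reagent addition.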

Chain of human DGKα (P23743 whole entry): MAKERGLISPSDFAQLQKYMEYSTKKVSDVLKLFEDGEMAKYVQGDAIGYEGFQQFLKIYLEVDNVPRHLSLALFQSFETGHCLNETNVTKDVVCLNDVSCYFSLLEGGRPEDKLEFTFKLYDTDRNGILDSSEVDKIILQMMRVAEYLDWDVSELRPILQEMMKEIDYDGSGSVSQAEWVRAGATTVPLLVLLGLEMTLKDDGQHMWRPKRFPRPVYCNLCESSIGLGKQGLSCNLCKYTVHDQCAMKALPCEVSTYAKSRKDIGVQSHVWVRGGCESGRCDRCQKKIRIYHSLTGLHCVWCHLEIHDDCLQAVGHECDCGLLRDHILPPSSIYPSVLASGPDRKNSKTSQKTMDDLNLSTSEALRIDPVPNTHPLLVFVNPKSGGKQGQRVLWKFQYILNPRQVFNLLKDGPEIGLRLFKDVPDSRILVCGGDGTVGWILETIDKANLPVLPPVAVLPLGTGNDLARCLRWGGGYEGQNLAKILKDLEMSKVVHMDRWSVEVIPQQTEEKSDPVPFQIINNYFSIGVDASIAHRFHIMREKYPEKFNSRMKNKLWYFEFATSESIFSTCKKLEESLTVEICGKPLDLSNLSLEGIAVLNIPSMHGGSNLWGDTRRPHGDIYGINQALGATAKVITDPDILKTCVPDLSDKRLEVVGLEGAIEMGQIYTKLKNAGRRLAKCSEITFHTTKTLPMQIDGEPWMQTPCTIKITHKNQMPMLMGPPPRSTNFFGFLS

SMILES | IC50 (human DGKα) [nM] | EC50 [1] [nM]
Cc1nnc2nc(N3CCCc4c(C#Cc5cn[nH]c5)cccc43)c3c(F)cccc3n12 [Example 212, 5-(5-((1H-pyrazol-4-yl)ethynyl)-3,4-dihydroquinolin-1(2H)-yl)-6-fluoro-1-methyl-[1,2,4]triazolo[4,3-a]quinazoline] | 18.6 | 9.7
Cc1nnc2nc(N3CCCc4c(C#Cc5ccn[nH]5)cccc43)c3c(F)cccc3n12 [Example 215, 5-(5-((1H-pyrazol-5-yl)ethynyl)-3,4-dihydroquinolin-1(2H)-yl)-6-fluoro-1-methyl-[1,2,4]triazolo[4,3-a]quinazoline] | 25.2 | 9.95
Cc1cccc2c1c(N1CCOCc3c(C#CC4(C)CC4)cccc31)nc1nnc(C)n12 [Example 216, 1-(1,6-dimethyl-[1,2,4]triazolo[4,3-a]quinazolin-5-yl)-6-((1-methylcyclopropyl)ethynyl)-1,2,3,5-tetrahydrobenzo[e][1,4]oxazepine] | 24.3 | 5.42
Cc1cccc2c1c(N1CCOCc3c(C#CC(C)(C)C#N)cccc31)nc1nnc(C)n12 [Example 217, 4-(1-(1,6-dimethyl-[1,2,4]triazolo[4,3-a]quinazolin-5-yl)-1,2,3,5-tetrahydrobenzo[e][1,4]oxazepin-6-yl)-2,2-dimethylbut-3-ynenitrile] | 31.7 | 16
Cc1nnc2nc(N3CCOCc4c(C#Cc5cnn(C)c5)cccc43)c3c(F)cccc3n12 [Example 218, 1-(6-fluoro-1-methyl-[1,2,4]triazolo[4,3-a]quinazolin-5-yl)-6-((1-methyl-1H-pyrazol-4-yl)ethynyl)-1,2,3,5-tetrahydrobenzo[e][1,4]oxazepine] | 14.5 | 33.9
Cc1nnc2nc(N3CCCc4c(C#Cc5cnc(C(F)(F)F)nc5)cccc43)c3c(F)cccc3n12 [Example 220, 6-fluoro-1-methyl-5-(5-((2-(trifluoromethyl)pyrimidin-5-yl)ethynyl)-3,4-dihydroquinolin-1(2H)-yl)-[1,2,4]triazolo[4,3-a]quinazoline] | 21.8 | 0.346
CCCCCc1cc(C2(C#Cc3cccc4c3CCCN4c3nc4nnc(C)n4c4cccc(F)c34)CC2)no1 [Example 221, 3-(1-((1-(6-fluoro-1-methyl-[1,2,4]triazolo[4,3-a]quinazolin-5-yl)-1,2,3,4-tetrahydroquinolin-5-yl)ethynyl)cyclopropyl)-5-pentylisoxazole] | 122 | 0.647
Cc1nnc2nc(N3CCCc4c(C#Cc5ccnn5C)cccc43)c3cc(F)ccc3n12 [Example 223, 7-fluoro-1-methyl-5-[5-[2-(2-methylpyrazol-3-yl)ethynyl]-3,4-dihydro-2H-quinolin-1-yl]-[1,2,4]triazolo[4,3-a]quinazoline] | 40.7 | 9.21
Cc1nnc2nc(N3CCCc4c(C#Cc5ccn[nH]5)cccc43)c3cc(F)ccc3n12 [Example 224, 7-fluoro-1-methyl-5-[5-[2-(1H-pyrazol-5-yl)ethynyl]-3,4-dihydro-2H-quinolin-1-yl]-[1,2,4]triazolo[4,3-a]quinazoline] | 15.1 | 8.38
Cc1nnc2nc(N(CC(F)F)c3cc(F)cc(C#Cc4cnn(C)c4)c3)c3c(F)c(F)ccc3n12 [Example 227, N-(2,2-difluoroethyl)-6,7-difluoro-N-[3-fluoro-5-[2-(1-methylpyrazol-4-yl)ethynyl]phenyl]-1-methyl-[1,2,4]triazolo[4,3-a]quinazolin-5-amine] | 29.3 | 9.73
COc1ccc(C#Cc2cccc3c2CCCN3c2nc3nnc(C)n3c3ccc(F)cc23)cn1 [Example 228, 7-fluoro-5-[5-[2-(6-methoxy-3-pyridyl)ethynyl]-3,4-dihydro-2H-quinolin-1-yl]-1-methyl-[1,2,4]triazolo[4,3-a]quinazoline] | 17.8 | 0.319
Cc1nnc2nc(N3CCCc4c(C#Cc5ccnc(C#N)c5)cccc43)c3cc(F)ccc3n12 [Example 229, 4-[2-[1-(7-fluoro-1-methyl-[1,2,4]triazolo[4,3-a]quinazolin-5-yl)-3,4-dihydro-2H-quinolin-5-yl]ethynyl]pyridine-2-carbonitrile] | 16.7 | 1.04
Cc1nnc2nc(N3CCCc4c(C#Cc5cncn5C)cccc43)c3cc(F)ccc3n12 [Example 232, 7-fluoro-1-methyl-5-[5-[2-(3-methylimidazol-4-yl)ethynyl]-3,4-dihydro-2H-quinolin-1-yl]-[1,2,4]triazolo[4,3-a]quinazoline] | 12.4 | 9.24
CCC(O)C#Cc1cc(F)cc(N(CC(F)F)c2nc3nnc(C)n3c3ccc(F)c(F)c23)c1 (centres unmarked) [Example 239, 1-[3-[2,2-difluoroethyl-(6,7-difluoro-1-methyl-[1,2,4]triazolo[4,3-a]quinazolin-5-yl)amino]-5-fluoro-phenyl]pent-1-yn-3-ol] | 24.8 | 31.6

Now those with a lower IC50 (human DGKα), led by results:

IC50 (human DGKα) [nM] | EC50 [1] [nM] | SMILES
11.2 | 1.3 | COc1cncc(C#Cc2cccc3c2CCCN3c2nc3nnc(C)n3c3ccc(F)cc23)c1 [Example 219]
10 | 1.28 | Cc1nnc2nc(N3CCCc4c(C#Cc5ccc(C#N)nc5)cccc43)c3c(F)cccc3n12 [Example 213, 5-((1-(6-fluoro-1-methyl-[1,2,4]triazolo[4,3-a]quinazolin-5-yl)-1,2,3,4-tetrahydroquinolin-5-yl)ethynyl)picolinonitrile]
9.08 | 3.29 | Cc1nnc2nc(N3CCOCc4c(C#Cc5ccnn5C)cccc43)c3c(F)cccc3n12 [Example 214, 1-(6-fluoro-1-methyl-[1,2,4]triazolo[4,3-a]quinazolin-5-yl)-6-((1-methyl-1H-pyrazol-5-yl)ethynyl)-1,2,3,5-tetrahydrobenzo[e][1,4]oxazepine]
8.31 | 1.26 | Cc1nnc2nc(N(CC(F)F)c3cc(F)cc(C#CC4CC(F)(F)C4)c3)c3c(F)c(F)ccc3n12 [Example 237, N-[3-[2-(3,3-difluorocyclobutyl)ethynyl]-5-fluoro-phenyl]-N-(2,2-difluoroethyl)-6,7-difluoro-1-methyl-[1,2,4]triazolo[4,3-a]quinazolin-5-amine]
7.64 | 4.06 | Cc1nc(C#Cc2cccc3c2CCCN3c2nc3nnc(C)n3c3ccc(F)cc23)cs1 [Example 231, 4-[2-[1-(7-fluoro-1-methyl-[1,2,4]triazolo[4,3-a]quinazolin-5-yl)-3,4-dihydro-2H-quinolin-5-yl]ethynyl]-2-methyl-thiazole]
7.46 | 8.97 | Cc1nnc2nc(N3CCCc4c(C#Cc5cn[nH]c5)cccc43)c3cc(F)ccc3n12 [Example 225, 7-fluoro-1-methyl-5-[5-[2-(1H-pyrazol-4-yl)ethynyl]-3,4-dihydro-2H-quinolin-1-yl]-[1,2,4]triazolo[4,3-a]quinazoline]
7.08 | 24.5 | Cc1nnc2nc(N(CC(F)F)c3cc(F)cc(C#CC4(O)CCC4)c3)c3c(F)c(F)ccc3n12 [Example 238, 1-[2-[3-[2,2-difluoroethyl-(6,7-difluoro-1-methyl-[1,2,4]triazolo[4,3-a]quinazolin-5-yl)amino]-5-fluoro-phenyl]ethynyl]cyclobutanol]
7.05 | 3.41 | Cc1nnc2nc(N3CCCc4c(C#CC(C)(C)C#N)cccc43)c3c(F)c(F)ccc3n12 [Example 240, 4-[1-(6,7-difluoro-1-methyl-[1,2,4]triazolo[4,3-a]quinazolin-5-yl)-3,4-dihydro-2H-quinolin-5-yl]-2,2-dimethyl-but-3-ynenitrile]
6.85 | 8.26 | Cc1nnc2nc(N3CCCc4c(C#CC(C)(C)CO)cccc43)c3cc(F)ccc3n12 [Example 235, 4-[1-(7-fluoro-1-methyl-[1,2,4]triazolo[4,3-a]quinazolin-5-yl)-3,4-dihydro-2H-quinolin-5-yl]-2,2-dimethyl-but-3-yn-1-ol]
6.74 | 2.15 | Cc1nnc2nc(N3CCCc4c(C#Cc5cnn(C)c5)cccc43)c3c(F)cccc3n12 [Example 233, 6-fluoro-1-methyl-5-[5-[2-(1-methylpyrazol-4-yl)ethynyl]-3,4-dihydro-2H-quinolin-1-yl]-[1,2,4]triazolo[4,3-a]quinazoline]
6.29 | 0.718 | COc1ccc(C#Cc2cccc3c2COCCN3c2nc3nnc(C)n3c3cccc(F)c23)cn1 [Example 222, 1-(6-fluoro-1-methyl-[1,2,4]triazolo[4,3-a]quinazolin-5-yl)-6-((6-methoxypyridin-3-yl)ethynyl)-1,2,3,5-tetrahydrobenzo[e][1,4]oxazepine]
3.86 | 23.3 | Cc1nnc2nc(N3CCCc4c(C#CC5(CO)CC5)cccc43)c3cc(F)ccc3n12 [Example 234, [1-[2-[1-(7-fluoro-1-methyl-[1,2,4]triazolo[4,3-a]quinazolin-5-yl)-3,4-dihydro-2H-quinolin-5-yl]ethynyl]cyclopropyl]methanol]
3.65 | 2.52 | Cc1nnc2nc(N3CCCc4c(C#Cc5cnn(C)c5)cccc43)c3cc(F)ccc3n12 [Example 236, 7-fluoro-1-methyl-5-[5-[2-(1-methylpyrazol-4-yl)ethynyl]-3,4-dihydro-2H-quinolin-1-yl]-[1,2,4]triazolo[4,3-a]quinazoline]
3.42 | 3.92 | Cc1nnc2nc(N3CCCc4c(C#Cc5cnn(C)c5)cccc43)c3c(F)c(F)ccc3n12 [Example 226, 6,7-difluoro-1-methyl-5-[5-[2-(1-methylpyrazol-4-yl)ethynyl]-3,4-dihydro-2H-quinolin-1-yl]-[1,2,4]triazolo[4,3-a]quinazoline]

Source: patent US11976072B2, “Diacylglycerol kinase modulating compounds” (priority 2021, dated 2024)
